Laboratory results: ChEMBL document CHEMBL4507266, “Data for DCP probe BAY-784” (2021)

How the values were obtained:
[1] = target: Serine/threonine-protein kinase SIK2 (Homo sapiens) (UniProt Q9H0K1); settings: Compound concentration 1000.0 nM
[2] = target: Serine/threonine-protein kinase 32C (Homo sapiens) (UniProt Q86UX6); settings: Compound concentration 1000.0 nM
[3] = target: Atypical kinase COQ8B, mitochondrial (Homo sapiens) (UniProt Q96D53); settings: Compound concentration 1000.0 nM
[4] = target: Receptor-interacting serine/threonine-protein kinase 2 (Homo sapiens) (UniProt O43353); settings: Compound concentration 1000.0 nM
[5] = target: Serine/threonine-protein kinase STK11 (Homo sapiens) (UniProt Q15831); settings: Compound concentration 1000.0 nM
[6] = target: Focal adhesion kinase 1 (Homo sapiens) (UniProt Q05397); settings: Compound concentration 1000.0 nM
[7] = test system: Epidermal growth factor receptor (Homo sapiens), P00533 [UNDEFINED MUTATION]; settings: Compound concentration 1000.0 nM
[8] = target: Proto-oncogene tyrosine-protein kinase receptor Ret (Homo sapiens) (UniProt P07949); settings: Compound concentration 1000.0 nM
[9] = target: Ribosomal protein S6 kinase alpha-5 (Homo sapiens) (UniProt O75582); settings: Compound concentration 1000.0 nM
[10] = test system: Mast/stem cell growth factor receptor Kit (Homo sapiens), P10721 [A829P]; settings: Compound concentration 1000.0 nM
[11] = target: Ribosomal protein S6 kinase beta-1 (Homo sapiens) (UniProt P23443); settings: Compound concentration 1000.0 nM
[12] = target: Rhodopsin kinase GRK1 (Homo sapiens) (UniProt Q15835); settings: Compound concentration 1000.0 nM
[13] = test system: Phosphatidylinositol 4,5-bisphosphate 3-kinase catalytic subunit alpha isoform (Homo sapiens), P42336 [H1047L]; settings: Compound concentration 1000.0 nM
[14] = target: Serine/threonine-protein kinase VRK2 (Homo sapiens) (UniProt Q86Y07); settings: Compound concentration 1000.0 nM
[15] = target: AP2-associated protein kinase 1 (Homo sapiens) (UniProt Q2M2I8); settings: Compound concentration 1000.0 nM
[16] = target: Tyrosine-protein kinase receptor TYRO3 (Homo sapiens) (UniProt Q06418); settings: Compound concentration 1000.0 nM
Tyrosine-protein kinase receptor TYRO3 (Homo sapiens), sequence (Q06418 whole entry): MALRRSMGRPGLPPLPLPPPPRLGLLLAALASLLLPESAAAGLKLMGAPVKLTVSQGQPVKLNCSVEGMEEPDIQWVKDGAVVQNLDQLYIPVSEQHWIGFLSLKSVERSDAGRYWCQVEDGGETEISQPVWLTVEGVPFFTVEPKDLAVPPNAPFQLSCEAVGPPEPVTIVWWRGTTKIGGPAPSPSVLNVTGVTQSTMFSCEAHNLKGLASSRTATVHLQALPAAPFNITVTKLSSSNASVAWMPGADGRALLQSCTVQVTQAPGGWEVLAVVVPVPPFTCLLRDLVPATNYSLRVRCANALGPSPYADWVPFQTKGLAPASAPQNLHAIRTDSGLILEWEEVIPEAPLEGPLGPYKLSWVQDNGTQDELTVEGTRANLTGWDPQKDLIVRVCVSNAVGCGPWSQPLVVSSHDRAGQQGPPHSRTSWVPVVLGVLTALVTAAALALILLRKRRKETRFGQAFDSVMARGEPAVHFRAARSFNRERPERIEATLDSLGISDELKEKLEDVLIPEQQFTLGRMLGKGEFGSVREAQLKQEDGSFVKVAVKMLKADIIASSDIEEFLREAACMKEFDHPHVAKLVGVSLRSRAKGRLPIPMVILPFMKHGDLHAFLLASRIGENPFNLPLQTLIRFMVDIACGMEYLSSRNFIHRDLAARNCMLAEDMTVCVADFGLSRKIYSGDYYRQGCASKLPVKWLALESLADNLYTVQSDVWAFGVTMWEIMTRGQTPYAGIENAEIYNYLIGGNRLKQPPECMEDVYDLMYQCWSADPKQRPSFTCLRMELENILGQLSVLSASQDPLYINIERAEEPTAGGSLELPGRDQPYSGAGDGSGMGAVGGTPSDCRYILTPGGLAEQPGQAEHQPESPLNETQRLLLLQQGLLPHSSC

[17] = target: Aurora kinase C (Homo sapiens) (UniProt Q9UQB9); settings: Compound concentration 1000.0 nM
[18] = target: Ribosomal protein S6 kinase alpha-3 (Homo sapiens) (UniProt P51812); settings: Compound concentration 1000.0 nM
[19] = target: SRSF protein kinase 3 (Homo sapiens) (UniProt Q9UPE1); settings: Compound concentration 1000.0 nM
[20] = test system: Mast/stem cell growth factor receptor Kit (Homo sapiens), P10721 [V559D,V654A]; settings: Compound concentration 1000.0 nM
Mast/stem cell growth factor receptor Kit (Homo sapiens), P10721 [V559D,V654A], sequence (P10721 whole entry V559D/V654A): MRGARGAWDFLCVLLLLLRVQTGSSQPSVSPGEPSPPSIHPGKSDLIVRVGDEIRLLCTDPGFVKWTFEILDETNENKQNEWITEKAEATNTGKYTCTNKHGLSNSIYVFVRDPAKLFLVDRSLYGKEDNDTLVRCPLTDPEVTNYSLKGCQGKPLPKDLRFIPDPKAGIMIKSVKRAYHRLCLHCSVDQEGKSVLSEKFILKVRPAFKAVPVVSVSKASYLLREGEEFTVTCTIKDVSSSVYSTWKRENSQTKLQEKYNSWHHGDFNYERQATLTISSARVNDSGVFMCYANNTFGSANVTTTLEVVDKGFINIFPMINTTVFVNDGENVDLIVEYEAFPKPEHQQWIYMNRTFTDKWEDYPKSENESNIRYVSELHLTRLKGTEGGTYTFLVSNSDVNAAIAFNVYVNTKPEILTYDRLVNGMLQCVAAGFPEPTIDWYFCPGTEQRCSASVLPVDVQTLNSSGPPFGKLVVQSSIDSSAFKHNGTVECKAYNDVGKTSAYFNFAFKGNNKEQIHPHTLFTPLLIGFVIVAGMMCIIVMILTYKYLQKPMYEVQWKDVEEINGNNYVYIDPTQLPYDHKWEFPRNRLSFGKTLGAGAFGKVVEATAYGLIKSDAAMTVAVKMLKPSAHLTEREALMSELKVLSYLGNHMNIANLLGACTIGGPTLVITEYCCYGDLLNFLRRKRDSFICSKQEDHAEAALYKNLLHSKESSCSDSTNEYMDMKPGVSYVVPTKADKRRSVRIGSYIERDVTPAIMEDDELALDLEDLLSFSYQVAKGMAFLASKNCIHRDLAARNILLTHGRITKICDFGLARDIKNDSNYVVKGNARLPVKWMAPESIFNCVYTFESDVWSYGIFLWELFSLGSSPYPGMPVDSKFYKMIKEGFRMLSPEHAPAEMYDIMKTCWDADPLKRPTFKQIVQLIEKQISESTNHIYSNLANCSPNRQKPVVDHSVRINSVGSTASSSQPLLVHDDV

[21] = target: Phosphatidylinositol 3-kinase catalytic subunit type 3 (Homo sapiens) (UniProt Q8NEB9); settings: Compound concentration 1000.0 nM
Phosphatidylinositol 3-kinase catalytic subunit type 3 (Homo sapiens), sequence (Q8NEB9 whole entry): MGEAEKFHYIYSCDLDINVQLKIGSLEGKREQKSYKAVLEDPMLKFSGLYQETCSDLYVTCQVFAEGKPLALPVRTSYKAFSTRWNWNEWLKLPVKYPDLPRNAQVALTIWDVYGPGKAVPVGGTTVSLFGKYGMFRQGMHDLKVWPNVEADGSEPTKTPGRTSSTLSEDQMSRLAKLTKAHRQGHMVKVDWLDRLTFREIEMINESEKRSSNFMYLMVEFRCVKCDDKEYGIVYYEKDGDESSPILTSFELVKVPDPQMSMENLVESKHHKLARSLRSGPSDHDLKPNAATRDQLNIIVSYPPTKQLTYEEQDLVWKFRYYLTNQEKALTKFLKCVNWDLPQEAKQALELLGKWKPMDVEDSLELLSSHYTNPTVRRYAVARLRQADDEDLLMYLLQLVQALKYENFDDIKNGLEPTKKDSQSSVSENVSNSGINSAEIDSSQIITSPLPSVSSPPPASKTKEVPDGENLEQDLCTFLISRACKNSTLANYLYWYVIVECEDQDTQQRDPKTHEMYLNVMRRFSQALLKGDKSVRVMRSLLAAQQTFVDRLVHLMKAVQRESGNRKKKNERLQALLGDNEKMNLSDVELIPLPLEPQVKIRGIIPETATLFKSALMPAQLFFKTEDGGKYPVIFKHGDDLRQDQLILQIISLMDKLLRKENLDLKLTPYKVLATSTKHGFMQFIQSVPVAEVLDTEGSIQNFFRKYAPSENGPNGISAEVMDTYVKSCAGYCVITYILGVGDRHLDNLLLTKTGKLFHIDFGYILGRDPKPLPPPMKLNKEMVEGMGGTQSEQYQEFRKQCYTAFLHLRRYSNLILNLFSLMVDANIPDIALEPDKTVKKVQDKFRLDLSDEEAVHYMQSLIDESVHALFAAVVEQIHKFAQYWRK

[22] = target: Serine/threonine-protein kinase MRCK gamma (Homo sapiens) (UniProt Q6DT37); settings: Compound concentration 1000.0 nM
[23] = target: Myosin light chain kinase 2, skeletal/cardiac muscle (Homo sapiens) (UniProt Q9H1R3); settings: Compound concentration 1000.0 nM
[24] = target: Misshapen-like kinase 1 (Homo sapiens) (UniProt Q8N4C8); settings: Compound concentration 1000.0 nM
[25] = test system: Tyrosine-protein kinase ABL1 (Homo sapiens), P00519 [F317I]; settings: Compound concentration 1000.0 nM
Tyrosine-protein kinase ABL1 (Homo sapiens), P00519 [F317I], sequence (P00519 whole entry F317I): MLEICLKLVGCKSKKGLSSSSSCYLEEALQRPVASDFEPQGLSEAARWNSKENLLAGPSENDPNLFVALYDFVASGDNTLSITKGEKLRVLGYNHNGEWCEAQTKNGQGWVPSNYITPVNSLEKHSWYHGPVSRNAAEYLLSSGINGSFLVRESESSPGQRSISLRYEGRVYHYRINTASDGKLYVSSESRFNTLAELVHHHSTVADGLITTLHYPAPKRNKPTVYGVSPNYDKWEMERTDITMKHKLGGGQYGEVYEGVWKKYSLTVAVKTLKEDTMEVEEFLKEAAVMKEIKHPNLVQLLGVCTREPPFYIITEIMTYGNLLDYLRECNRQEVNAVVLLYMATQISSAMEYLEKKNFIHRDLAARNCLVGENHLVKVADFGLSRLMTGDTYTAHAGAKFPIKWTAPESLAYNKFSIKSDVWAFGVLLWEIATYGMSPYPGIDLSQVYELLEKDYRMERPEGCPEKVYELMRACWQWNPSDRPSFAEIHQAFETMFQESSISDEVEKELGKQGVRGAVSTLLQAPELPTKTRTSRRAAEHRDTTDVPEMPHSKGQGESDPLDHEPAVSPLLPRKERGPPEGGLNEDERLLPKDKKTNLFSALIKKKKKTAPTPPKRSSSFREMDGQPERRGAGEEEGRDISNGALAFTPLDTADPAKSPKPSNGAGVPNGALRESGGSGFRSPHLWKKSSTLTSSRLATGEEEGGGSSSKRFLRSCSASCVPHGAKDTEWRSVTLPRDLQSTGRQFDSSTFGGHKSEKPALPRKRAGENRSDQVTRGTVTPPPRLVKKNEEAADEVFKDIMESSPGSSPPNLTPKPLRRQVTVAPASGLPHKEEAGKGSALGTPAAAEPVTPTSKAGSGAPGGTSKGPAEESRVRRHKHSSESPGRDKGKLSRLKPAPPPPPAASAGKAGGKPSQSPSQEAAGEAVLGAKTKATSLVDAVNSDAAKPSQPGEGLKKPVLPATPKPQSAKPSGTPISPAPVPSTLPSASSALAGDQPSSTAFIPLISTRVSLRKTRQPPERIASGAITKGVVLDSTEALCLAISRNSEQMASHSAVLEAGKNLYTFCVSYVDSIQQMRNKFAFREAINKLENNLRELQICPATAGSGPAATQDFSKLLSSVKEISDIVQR

[26] = test system: Mast/stem cell growth factor receptor Kit (Homo sapiens), P10721 [D816H]; settings: Compound concentration 1000.0 nM
[27] = target: Mitogen-activated protein kinase 15 (Homo sapiens) (UniProt Q8TD08); settings: Compound concentration 1000.0 nM
[28] = target: Serine/threonine-protein kinase pim-3 (Homo sapiens) (UniProt Q86V86); settings: Compound concentration 1000.0 nM
[29] = target: Protein-tyrosine kinase 6 (Homo sapiens) (UniProt Q13882); settings: Compound concentration 1000.0 nM
[30] = target: Phosphatidylinositol 4-phosphate 5-kinase type-1 alpha (Homo sapiens) (UniProt Q99755); settings: Compound concentration 1000.0 nM
[31] = target: Serine/threonine-protein kinase Nek2 (Homo sapiens) (UniProt P51955); settings: Compound concentration 1000.0 nM
Serine/threonine-protein kinase Nek2 (Homo sapiens), sequence (P51955 whole entry): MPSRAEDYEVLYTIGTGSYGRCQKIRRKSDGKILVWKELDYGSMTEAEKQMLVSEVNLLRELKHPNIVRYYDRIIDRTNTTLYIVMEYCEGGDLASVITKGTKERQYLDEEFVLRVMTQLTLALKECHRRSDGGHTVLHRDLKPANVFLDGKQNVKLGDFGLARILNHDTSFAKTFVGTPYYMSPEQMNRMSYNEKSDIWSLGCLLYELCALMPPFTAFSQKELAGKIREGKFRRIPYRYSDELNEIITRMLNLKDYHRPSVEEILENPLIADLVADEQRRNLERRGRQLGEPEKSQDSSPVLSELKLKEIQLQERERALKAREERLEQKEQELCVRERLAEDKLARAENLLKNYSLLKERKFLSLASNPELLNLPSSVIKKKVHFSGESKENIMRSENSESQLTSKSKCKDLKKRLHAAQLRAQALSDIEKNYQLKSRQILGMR

[32] = target: cGMP-dependent protein kinase 2 (Homo sapiens) (UniProt Q13237); settings: Compound concentration 1000.0 nM
[33] = test system: Proto-oncogene tyrosine-protein kinase receptor Ret (Homo sapiens), P07949 [V804L]; settings: Compound concentration 1000.0 nM
[34] = target: Serine/threonine-protein kinase PAK 6 (Homo sapiens) (UniProt Q9NQU5); settings: Compound concentration 1000.0 nM
[35] = test system: Tyrosine-protein kinase ABL1 (Homo sapiens), P00519 [F317L]; settings: Compound concentration 1000.0 nM
[36] = target: Cyclin-dependent kinase 9 (Homo sapiens) (UniProt P50750); settings: Compound concentration 1000.0 nM
[37] = target: Protein-tyrosine kinase 2-beta (Homo sapiens) (UniProt Q14289); settings: Compound concentration 1000.0 nM
[38] = target: Serine/threonine-protein kinase N1 (Homo sapiens) (UniProt Q16512); settings: Compound concentration 1000.0 nM
[39] = test system: Phosphatidylinositol 4,5-bisphosphate 3-kinase catalytic subunit alpha isoform (Homo sapiens), P42336 [E545A]; settings: Compound concentration 1000.0 nM
[40] = target: Tyrosine-protein kinase Lyn (Homo sapiens) (UniProt P07948); settings: Compound concentration 1000.0 nM
Tyrosine-protein kinase Lyn (Homo sapiens), sequence (P07948 2-512 limits assumed): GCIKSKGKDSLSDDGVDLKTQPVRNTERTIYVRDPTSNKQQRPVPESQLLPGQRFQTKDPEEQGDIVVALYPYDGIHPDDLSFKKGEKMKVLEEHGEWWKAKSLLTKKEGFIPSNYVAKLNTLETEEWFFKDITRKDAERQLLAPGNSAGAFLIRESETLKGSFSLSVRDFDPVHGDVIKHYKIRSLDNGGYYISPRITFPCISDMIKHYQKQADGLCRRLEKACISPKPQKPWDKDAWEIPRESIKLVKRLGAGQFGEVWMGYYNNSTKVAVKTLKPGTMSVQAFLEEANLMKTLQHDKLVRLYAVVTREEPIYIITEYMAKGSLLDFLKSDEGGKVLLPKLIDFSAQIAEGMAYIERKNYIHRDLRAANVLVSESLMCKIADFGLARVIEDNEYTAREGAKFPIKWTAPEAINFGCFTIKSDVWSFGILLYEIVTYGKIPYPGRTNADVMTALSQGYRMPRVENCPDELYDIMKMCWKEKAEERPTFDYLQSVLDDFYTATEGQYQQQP

[41] = target: Cyclin-dependent kinase-like 2 (Homo sapiens) (UniProt Q92772); settings: Compound concentration 1000.0 nM
[42] = test system: Mast/stem cell growth factor receptor Kit (Homo sapiens), P10721 [V559D]; settings: Compound concentration 1000.0 nM
[43] = target: Wee1-like protein kinase (Homo sapiens) (UniProt P30291); settings: Compound concentration 1000.0 nM
[44] = target: Delta-type opioid receptor (Homo sapiens) (UniProt P41143); settings: Compound concentration 10.0 uM
[45] = test system: Phosphatidylinositol 4,5-bisphosphate 3-kinase catalytic subunit alpha isoform (Homo sapiens), P42336 [E545K]; settings: Compound concentration 1000.0 nM

O=C(NCc1ncc(C(F)(F)F)cc1Cl)c1ccc2c(c1)C1(CCS(=O)(=O)CC1)[C@@H](C1CC1)N2S(=O)(=O)c1ccc(F)cc1 [BAY-786]
inactive: residual activity [1] 100% | residual activity [2] 100% | residual activity [3] 85% | residual activity [4] 100% | residual activity [5] 100% | residual activity [6] 95% | residual activity [7] 87% | residual activity [8] 100% | residual activity [9] 97% | residual activity [10] 67% | residual activity [11] 72% | residual activity [12] 79% | residual activity [13] 85% | residual activity [14] 98% | residual activity [15] 100% | residual activity [16] 84% | residual activity [17] 80% | residual activity [18] 82% | residual activity [19] 100% | residual activity [20] 68% | residual activity [21] 89% | residual activity [22] 93% | residual activity [23] 83% | residual activity [24] 85% | residual activity [25] 71% | residual activity [26] 64% | residual activity [27] 100% | residual activity [28] 85% | residual activity [29] 94% | residual activity [30] 100% | residual activity [31] 88% | residual activity [32] 89% | residual activity [33] 100% | residual activity [34] 100% | residual activity [35] 68% | residual activity [36] 100% | residual activity [37] 100% | residual activity [38] 100% | residual activity [39] 90% | residual activity [40] 100% | residual activity [41] 100% | residual activity [42] 85% | residual activity [43] 100% | inhibition [44] -2.65% | residual activity [45] 74%

O=C(NCc1ncc(C(F)(F)F)cc1Cl)c1ccc2c(c1)C1(CCS(=O)(=O)CC1)[C@H](C1CC1)N2S(=O)(=O)c1ccc(F)cc1 [BAY-784]
inactive: residual activity [1] 96% | residual activity [2] 100% | residual activity [3] 83% | residual activity [4] 100% | residual activity [5] 100% | residual activity [6] 100% | residual activity [7] 100% | residual activity [8] 98% | residual activity [9] 100% | residual activity [10] 92% | residual activity [11] 64% | residual activity [12] 80% | residual activity [13] 77% | residual activity [14] 95% | residual activity [15] 99% | residual activity [16] 100% | residual activity [17] 82% | residual activity [18] 100% | residual activity [19] 100% | residual activity [20] 100% | residual activity [21] 86% | residual activity [22] 100% | residual activity [23] 100% | residual activity [24] 90% | residual activity [25] 83% | residual activity [26] 79% | residual activity [27] 100% | residual activity [28] 100% | residual activity [29] 100% | residual activity [30] 100% | residual activity [31] 89% | residual activity [32] 77% | residual activity [33] 92% | residual activity [34] 100% | residual activity [35] 74% | residual activity [36] 100% | residual activity [37] 100% | residual activity [38] 100% | residual activity [39] 89% | residual activity [40] 100% | residual activity [41] 100% | residual activity [42] 100% | residual activity [43] 82% | inhibition [44] -0.34% | residual activity [45] 84%
